{
  "source": "patent US8735620B2",
  "about": "“Processes for preparing (E)-styrylbenzylsulfone compounds and uses thereof for treating proliferative disorders” (priority 2008, dated 2014)",
  "key": {"Sk-OV-3": {"test_system": "Sk-OV-3", "assay": "Tumor cell killing, Sk-OV-3", "assay_type": "cell-based, human", "settings": "Sk-OV-3, OVARIAN; read-out: Tumor cell killing (IC50) concentration", "experimental": "(§1) Tissue Culture and Reagents: Paclitaxel was purchased from Sigma. Cell lines were purchased from ATCC. Cell lines were routinely grown in DMEM or RPM1 (CellGro) supplemented with 10% fetal bovine serum (Atlas) and 1 unit/mL penicillin-streptomycin (Gibco).\n(§2) A number of tumor cell lines were tested using a dose response end point assay system. The cells were grown in either DMEM or RPMI supplemented with 10% fetal bovine serum and 1 unit/mL Penicillin-Streptomycin solution. The tumor cells were plated into 6 well dishes at a cell density of 1.0×10^5 cells/mL/well and compounds were added 24 h later at various concentrations. Cell counts were determined from duplicate wells after 96 h of treatment. The total number of viable cells was determined by trypan blue exclusion."}, "HCT-116": {"test_system": "HCT-116", "assay": "Tumor cell killing, HCT-116", "assay_type": "cell-based, human", "settings": "HCT-116, COLO-RECTAL; read-out: Tumor cell killing (IC50) concentration", "experimental": "as §1, §2"}, "K562": {"test_system": "K562", "assay": "Tumor cell killing, K562", "assay_type": "cell-based, human", "settings": "K562, CML; read-out: Tumor cell killing (IC50) concentration", "experimental": "as §1, §2"}, "2008/17/4": {"test_system": "2008/17/4", "assay": "Tumor cell killing, 2008/17/4", "assay_type": "cell-based, human", "settings": "*2008/17/4, Resistant Ovarian (multi-drug resistant); read-out: Tumor cell killing (IC50) concentration", "experimental": "as §1, §2"}, "BT20": {"test_system": "BT20", "assay": "Soft agar colony formation, BT20", "assay_type": "cell-based, human", "settings": "BT20, dose dependent"}, "[1]": {"test_system": "DU145 (prostate cancer) cells", "assay": "Cell cycle analysis by flow cytometry, tumor cells", "assay_type": "cell-based, human", "settings": "DU145, 20 nM, 24 hr intervals", "experimental": "(§3) FIG. 2 Preferential tumor cell killing activity of 6aa. A. Cell Cycle analyses. Normal (HUVEC) and tumor cells (DU145) were treated with 20 nM concentration of 6aa and incubated in medium containing 10% fetal bovine serum. At 24 hr intervals, the cells were fixed, stained with propidium iodide and analyzed for their DNA content by flow Cytometry. B. Induction of apoptosis in normal (HUVEC) and tumor cells (DU145) was assessed by western blot analysis of cell lysates treated with 6aa for 24, 48 and 72 h. The Western blots were probed with anti-PARP antibodies to assess the cleavage of the protein.\nHuman prostate tumor cells, DU145 cells, and normal diploid human lung fibroblasts, HFL-1 cells, were grown in DMEM (Cellgro) supplemented with 10% fetal bovine serum and 1 unit/mL penicillin-streptomycin. The cells were plated onto 100 mm^2 dishes at a cell density of 1.0×10^6 cells/dish, and 24 h later, they were treated with 2.5 μM of the compound. The cells were harvested 24, 48 and 72 h after treatment. The cells were removed from the plate by trypsin digestion and combined with the non-attached cells found in the medium. The cell pellets were washed in phosphate buffered saline (PBS), and fixed in ice cold 70% ethanol for at least 24 h. […] The stained cells were then analyzed on a Becton-Dickinson (BD) (FACScan) flow cytometer and the data analyzed by cell cycle analysis software (Modfit, BD)."}, "DU145": {"test_system": "DU145", "assay": "PARP cleavage western blot, tumor cells", "assay_type": "cell-based, human", "settings": "tumor cells (DU145), 24, 48 and 72 h", "experimental": "as §3\n(§4) […] were plated at a density of 3.0×10^6 cells per 150 mm^2 plate and treated 24 h later with either DMSO or 6aa. The cells were collected at the indicated time points and cell pellets were frozen. The frozen cell pellets were lysed in 1% NP40/PBS lysis buffer containing protease inhibitors. Equal amounts of total cellular protein was then resolved on a 10%-SDS-polyacrylamide gel. The gels were transferred onto nitrocellulose paper (S/S), hybridized with anti-PARP antibodies (BD) and developed using ECL (Perkin-Elmer, MA) solution."}, "HUVEC": {"test_system": "HUVEC", "assay": "PARP cleavage western blot, normal cells", "assay_type": "cell-based, human", "settings": "HUVEC, 24, 48 and 72 h", "experimental": "as §3, §4"}, "bone marrow cells": {"test_system": "bone marrow cells", "assay": "Bone marrow harvest and colony formation assay", "assay_type": "in vivo, CD-1 mice", "settings": "100 mg/kg intravenously, 12, 24 and 48 h after injection", "experimental": "FIG. 4 Bone marrow toxicity profile of 6ab. To assess the toxicity of 6ab, the phosphate salt of the drug was injected into mice (100 mg/Kg) and bone marrow harvested from femur and tibia after 12, 24 and […] following the injection of the drug. The bone marrow cells were cultured in methylcellulose medium supplemented with a mixture of stem cell factor, GM-CSF, IL-3 and erythropoietin for one week and colony forming units were determined.\nBone marrow was harvested from femur and tibia of CD-1 mice injected with 200 μL of PBS or 6ab [10 mg/mL:100 mg/kg dose] at 12, 24, or 48 h before the sacrifice. The bone marrow cells were cultured in Methylcellulose medium supplemented with 50 ng/mL rmStem Cell Factor, 10 ng/mL rmIL-3, 10 ng/mL rh IL-6, 200 μg/mL human Transfeffin, and 3 units/mL rhErythropoietin (Stem Cell Technologies, Vancouver, BC, Canada). Cultures were seeded in duplicates using 35 mm plastic petri dishes and colony forming units were determined after one week."}},
  "data": [
    {"compound": "COc1cc(OC)c(/C=C/S(=O)(=O)Cc2ccc(OC)c(O)c2)c(OC)c1", "note": "[6aa, (E)-2,4,6-Trimethoxystyryl-3-Hydroxy-4-Methoxybenzyl Sulfone]", "values": [
      {"measurement": "IC50", "setting": "Sk-OV-3", "value": 6, "unit": "nM"},
      {"measurement": "IC50", "setting": "HCT-116", "value": 9, "unit": "nM"},
      {"measurement": "IC50", "setting": "K562", "value": 4, "unit": "nM"},
      {"measurement": "IC50", "setting": "2008/17/4", "value": 4, "unit": "nM"},
      {"measurement": "growth of tumor cells in soft agar", "setting": "BT20", "value": "complete inhibition of the growth of tumor cells"},
      {"measurement": "effect on cell cycle progression", "setting": "[1]", "value": "gradually accumulated in the G2/M phase"},
      {"measurement": "apoptosis as judged by PARP cleavage", "setting": "DU145", "value": "activation of apoptotic pathways"},
      {"measurement": "PARP cleavage", "setting": "HUVEC", "value": "No PARP cleavage was observed"},
      {"measurement": "in vitro hematopoietic colony formation of bone marrow cells", "setting": "bone marrow cells", "value": "no reduction in total, myeloid or lymphoid colony formation"}
    ]}
  ]
}
